# Data taken from US20100331297A1, “MODULATION OF PROTEIN TRAFFICKING” (FOLDRX PHARMACEUTICALS, INC., priority 2007, published 2010).
# Tested on: ypt1^ts cells
# Assay: Rescue of growth of ypt1^ts mutant yeast (OD600)
# Assay type: cell-based
# Conditions: Saccharomyces cerevisiae, read-out: Ypt1-ts MRC (Minimum Rescue Concentration), ypt1^ts cells, 35° C. and 37° C., OD600; multiple results separated by a comma
# Source text: The activity of the compounds as modulators of protein trafficking may be measured in the assays described herein that evaluate the ability of a compound to rescue an impairment in protein trafficking. For example, the yeast mutant cell line ypt1^ts can be used to identify compounds that rescue cells from the lethal phenotype of a mutant YPT1 allele (see, e.g., Examples and Schmitt et al. (1988) Cell 53:635-47). The activity may be measured, for example, in a whole yeast cell assay using 384-well screening protocol and an optical density measurement.
# The yeast mutant cell line ypt1^ts suppresses, in a temperature dependent fashion, the dominant-lethal phenotype of a mutant YPT1 allele (Schmitt et al. (1988) Cell 53:635-47). The yeast mutant cell line ypt1^ts contains an allele of YPT1 that has two point mutations: one that changes an asparagine at position 121 to a isoleucine (N121I) and another that changes an alanine at position 161 to a valine (A161V). The N121I mutation causes dominant lethality by itself, but lethality is suppressed by the second mutation, resulting in a recessive loss of function phenotype at the restrictive temperatures. ypt1^ts cells grow normally at temperatures up to 25° C., but are growth arrested at 37° C. (Id.).
# Compounds were screened to assess their ability to restore growth of ypt1^ts cells. The effect of the compounds was measured on ypt1^ts cells cultured at room temperature (permissive temperature), 37° C. (non-permissive temperature), and 35° C. (semi-permissive temperature).
# To determine if the test compounds could rescue the ypt1^ts mutant phenotype, ypt1^ts cells were grown overnight in synthetic complete (SC) media supplemented with 2% glucose at room temperature. Log phase cells were diluted into SC 2% glucose media to an OD600 of 0.003. 100 μL of this culture was then aliquoted into each well of 96-well flat bottom microtiter plates. 1 μL of the test compounds dissolved in DMSO (at a concentration range from 5 mM-0.005 mM) or of DMSO alone was added to each well (50 μM-0.05 μM final concentration in 1% DMSO). Plates were mixed by vortexing and incubated at 35° C. and 37° C. Compound rescue of the ypt1^ts temperature sensitive defect was assessed by measuring the OD600 (optical density at 600 nm; cell growth) of the cultures. Plates incubated at 35° C. were measured at 24 and 40 hours incubation time while plates grown at 37° C. were measured after 40 hours of incubation.
# Assays monitoring the rescue of ypt1^ts mutants were performed using a vehicle, a positive control (calcium), and the compounds identified in Table II. Results in Table II corresponding to an MRC (Minimum Rescue Concentration) for ypt1^ts of greater than or equal to 50 micromolar are labeled +; of an MRC for ypt1^ts of 10-50 micromolar are labeled ++; and of an MRC for ypt1^ts of less than 10 micromolar are labeled +++. Multiple results for a particular compound are separated by a comma.
row,Structure (SMILES),minimal effective concentration [µM]
1,CC(C)(C)n1nc(-c2ccccc2Cl)c2c(N)ncnc21 [compound 7],> 50
2,"CC(C)(C)n1nc(-c2ccc(F)cc2)c2c(N)ncnc21 [compound 9, 1-tert-Butyl-3-(4-fluoro-phenyl)-1H-pyrazolo[3,4-d]pyrimidin-4-ylamine]",> 50
3,"CC(C)(C)n1ncc2c(N)ncnc21 [compound 12, 1-tert-butyl-1H-pyrazolo[3,4-d]pyrimidin-4-ylamine]",> 50
4,COc1ccc(-c2nn(C(C)(C)C)c3ncnc(N)c23)cc1 [compound 13],> 50
5,CC(C)(C)n1nc(-c2ccc(-c3ccccc3)cc2)c2c(N)ncnc21 [compound 14],> 50
6,CC(C)(C)n1nc(-c2cccs2)c2c(N)ncnc21 [compound 15],> 50
7,CC(C)c1ccc(-c2nn(C(C)(C)C)c3ncnc(N)c23)cc1 [compound 17],> 50
8,CC(C)(C)c1ccc(-c2nn(C(C)(C)C)c3ncnc(N)c23)cc1 [compound 18],> 50
9,CC(C)(C)n1nc(Cc2ccc(Cl)cc2)c2c(N)ncnc21 [compound 19],< 10
10,CC(C)(C)n1nc(Cc2ccccc2Cl)c2c(N)ncnc21 [compound 20],10 to 50
11,CC(C)(C)n1nc(Cc2ccc(Cl)c(Cl)c2)c2c(N)ncnc21 [compound 21],> 50
12,Cc1ccc(Cc2nn(C(C)(C)C)c3ncnc(N)c23)cc1 [compound 22],10 to 50
13,CC(C)(C)n1nc(Cc2ccc3c(c2)OCO3)c2c(N)ncnc21 [compound 23],10 to 50
14,Nc1ncnc2c1c(-c1ccc(Cl)cc1)nn2Cc1ccccc1 [compound 28],10 to 50
15,CC(C)(C)n1nc(-c2ccc(C#N)cc2)c2c(N)ncnc21 [compound 35],> 50
16,CC(C)(C)n1nc(-c2ccc(Cl)c(Cl)c2)c2c(N)ncnc21 [compound 36],> 50
17,CC(C)(C)n1nc(-c2ccsc2)c2c(N)ncnc21 [compound 37],> 50
18,CC(C)(C)n1nc(-c2cc3ccccc3o2)c2c(N)ncnc21 [compound 42],> 50
19,"Cc1ccc(-c2nn(C(C)(C)C)c3ncc(C(=O)O)c(N)c23)cc1 [compound 45, 4-Amino-1-tert-butyl-3-p-tolyl-1H-pyrazolo[3,4-b]pyridine-5-carboxylic acid]",> 50
20,CC(C)(C)n1nc(CCc2ccccc2)c2c(N)ncnc21 [compound 48],> 50
21,CC(c1ccccc1)c1nn(C(C)(C)C)c2ncnc(N)c12 (stereo not shown) [compound 49],10 to 50
22,CC(C)(C)n1nc(Cc2cccc(F)c2)c2c(N)ncnc21 [compound 50],10 to 50
23,CC(C)(C)n1nc(Cc2ccc(F)cc2)c2c(N)ncnc21 [compound 51],> 50
24,Cc1cccc(Cc2nn(C(C)(C)C)c3ncnc(N)c23)c1 [compound 52],10 to 50

row,Structure (SMILES),minimal effective concentration [µM]
1,CCn1nc(-c2ccc(Cl)cc2)c2c(N(C(C)=O)C(C)=O)ncnc21 [compound 54],> 50
2,COc1cccc(Cc2nn(C(C)(C)C)c3ncnc(N)c23)c1 [compound 56],10 to 50
3,Cc1nc(N)c2c(-c3ccc(Cl)cc3)nn(C(C)(C)C)c2n1 [compound 57],10 to 50
4,CC(C)(C)n1nc(Cc2cccc(Br)c2)c2c(N)ncnc21 [compound 58],< 10
5,CC(C)(C)n1nc(Cc2cccc(C#N)c2)c2c(N)ncnc21 [compound 59],> 50
6,CC(C)(C)n1nc(Cc2cccc(-c3ccccc3)c2)c2c(N)ncnc21 [compound 60],> 50
7,CCc1nc(N)c2c(-c3ccc(Cl)cc3)nn(C(C)(C)C)c2n1 [compound 61],> 50
8,CC(C)(C)n1nc(-c2ccc(Cl)cc2)c2c(N)nc(C3CC3)nc21 [compound 62],> 50
9,CC(C)(C)n1nc(-c2ccc(Cl)cc2)c2c(N)nc(CC3CC3)nc21 [compound 63],> 50
10,C#Cc1cccc(Cc2nn(C(C)(C)C)c3ncnc(N)c23)c1 [compound 64],10 to 50
11,Cc1ccc(Cc2nn(C(C)(C)C)c3ncnc(N)c23)cc1C [compound 65],10 to 50
12,CC(C)(C)n1nc(Cc2cccc3c2OCC3)c2c(N)ncnc21 [compound 66],10 to 50
13,CC(C)(C)n1nc(Cc2cccc3ccoc23)c2c(N)ncnc21 [compound 68],10 to 50
14,"Cc1ccc(-c2nn(C(C)(C)C)c3nccc(N)c23)cc1 [compound 69, 1-tert-Butyl-3-p-tolyl-1H-pyrazolo[3,4-b]pyridin-4-ylamine]",> 50
15,Nc1ncnc2[nH]nc(Cc3cccc4ccccc34)c12 [compound 70],> 50
16,CCn1nc(Cc2cccc3ccccc23)c2c(N)ncnc21 [compound 71],< 10
17,Nc1ncnc2c1c(Cc1cccc3ccccc13)nn2CC1CC1 [compound 72],< 10
18,Nc1ncnc2c1c(Cc1cccc3ccccc13)nn2C1CC1 [compound 73],< 10
19,CC(C)Cn1nc(Cc2cccc3ccccc23)c2c(N)ncnc21 [compound 75],< 10
20,C=CCn1nc(Cc2cccc3ccccc23)c2c(N)ncnc21 [compound 76],10 to 50
21,CC(C)n1nc(Cc2cccc3ccccc23)c2c(N)ncnc21 [compound 78],< 10
22,"CC(C)(C)n1nc(COCc2ccccc2)c2c(N)ncnc21 [compound 81, 3-benzyloxymethyl-1-tert-butyl-1H-pyrazolo[3,4-d]pyrimidin-4-ylamine]",> 50
23,"CC(C)(C)n1nc(C(O)c2ccccc2)c2c(N)ncnc21 (stereo not shown) [compound 82, (4-amino-1-tert-butyl-1H-pyrazolo[3,4-d]pyrimidin-3-yl)-phenyl-methanol]",> 50

# Target: T1, ΔF508 CFTR (Homo sapiens, UniProt P13569, DEL508-508)
# Assay: Potentiator activity, YFP halide (iodide) quenching assay in FRT cells expressing ΔF508 CFTR, 27° C. pre-incubation
# Assay type: cell-based
# Parameters: expressed in transfected cells; host or cells: Fischer rat thyroid (FRT) cells
# Conditions: FRT cells ΔF508 CFTR/YFP, 24 hours at 27° C., compound with forskolin 30 min
# Outline: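 FRT cells stably co-expressing ΔF508 CFTR and halide-sensitive YFP, grown 24 h at 37° C. then 24 h at 27° C. to raise surface CFTR. Compounds in PBS with forskolin, 30 min at 37° C.; iodide injected and YFP quenching (ex 485/em 530 nm) followed. EC50 from normalized endpoint fluorescence.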
# T1 sequence (P13569 with tags, fused parts or gaps DEL508-508): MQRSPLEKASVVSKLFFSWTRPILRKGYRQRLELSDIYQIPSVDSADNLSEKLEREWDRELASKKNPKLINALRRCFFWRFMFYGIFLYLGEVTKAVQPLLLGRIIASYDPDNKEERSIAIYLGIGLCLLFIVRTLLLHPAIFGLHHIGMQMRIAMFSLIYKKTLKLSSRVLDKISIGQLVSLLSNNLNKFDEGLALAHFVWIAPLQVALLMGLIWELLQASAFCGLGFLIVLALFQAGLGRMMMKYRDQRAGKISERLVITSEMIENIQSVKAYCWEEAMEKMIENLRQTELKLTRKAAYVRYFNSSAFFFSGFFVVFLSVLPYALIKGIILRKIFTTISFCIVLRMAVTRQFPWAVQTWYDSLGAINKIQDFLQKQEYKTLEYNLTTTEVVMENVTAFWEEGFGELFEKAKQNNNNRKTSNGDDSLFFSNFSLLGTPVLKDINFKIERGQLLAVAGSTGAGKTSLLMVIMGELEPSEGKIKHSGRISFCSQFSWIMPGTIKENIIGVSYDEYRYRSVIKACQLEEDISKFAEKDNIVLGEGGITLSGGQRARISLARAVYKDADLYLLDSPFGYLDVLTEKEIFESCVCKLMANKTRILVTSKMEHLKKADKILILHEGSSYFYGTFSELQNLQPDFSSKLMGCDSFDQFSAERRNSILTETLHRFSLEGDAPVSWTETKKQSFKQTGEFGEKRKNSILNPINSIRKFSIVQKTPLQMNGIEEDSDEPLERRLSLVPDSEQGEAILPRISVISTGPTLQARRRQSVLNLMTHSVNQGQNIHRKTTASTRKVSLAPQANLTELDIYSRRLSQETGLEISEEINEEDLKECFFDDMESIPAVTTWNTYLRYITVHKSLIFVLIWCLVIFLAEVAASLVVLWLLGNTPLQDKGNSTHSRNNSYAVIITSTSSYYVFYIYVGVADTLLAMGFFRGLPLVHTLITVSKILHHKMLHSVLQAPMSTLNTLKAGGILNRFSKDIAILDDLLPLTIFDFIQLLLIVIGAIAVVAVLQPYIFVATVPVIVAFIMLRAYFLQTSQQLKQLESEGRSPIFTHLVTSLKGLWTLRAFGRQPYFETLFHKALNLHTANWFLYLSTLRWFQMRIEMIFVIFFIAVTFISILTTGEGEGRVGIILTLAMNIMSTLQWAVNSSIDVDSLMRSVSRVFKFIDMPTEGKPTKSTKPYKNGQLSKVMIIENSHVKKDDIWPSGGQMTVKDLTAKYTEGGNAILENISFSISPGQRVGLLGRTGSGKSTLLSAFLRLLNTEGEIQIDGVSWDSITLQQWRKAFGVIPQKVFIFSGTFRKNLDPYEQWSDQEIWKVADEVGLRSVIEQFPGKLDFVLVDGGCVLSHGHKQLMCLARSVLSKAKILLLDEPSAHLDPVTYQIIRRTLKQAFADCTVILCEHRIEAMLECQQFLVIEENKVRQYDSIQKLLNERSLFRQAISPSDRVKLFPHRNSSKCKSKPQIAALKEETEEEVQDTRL
row,Structure (SMILES),EC50 [µM]
1,CCn1cc(-c2ccc(Cl)cc2)c2c(NC(=O)C3CCCC3)ncnc21 [compound 350],> 15
2,CC(C)(C1CC1)n1cc(-c2ccc(Cl)cc2)c2c(N)ncnc21 [compound 351],< 2
3,CC(C)C(=O)Nc1ncnc2c1c(-c1ccc(Cl)cc1)cn2C(C)C [compound 352],< 2
4,CCn1nc([S+]([O-])c2ccccn2)c2c(N)ncnc21 (stereo not shown) [compound 353],5 to 10
5,Nc1ncnc2c1c(-c1ccc(Cl)cc1)nn2C1CNC1 [compound 411],> 15
6,Nc1ncnc2c1c(-c1ccc(Cl)cc1)nn2C1CCNCC1 [compound 412],> 15
7,Nc1ncnc2c1c(Cc1cccc3ccccc13)nn2C1CNC1 [compound 413],> 15

# Target: T1, ΔF508 CFTR
# Assay: Corrector activity, YFP halide (iodide) quenching assay in FRT cells expressing ΔF508 CFTR
# Assay type: cell-based
# Parameters: expressed in transfected cells; host or cells: Fischer rat thyroid (FRT) cells
# Conditions: FRT cells ΔF508 CFTR/YFP, 24 hours with compound at 37° C., forskolin and genistein; read-out: Corrector EC50
# Outline: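 FRT cells co-expressing ΔF508 CFTR and halide-sensitive YFP were incubated 24 h at 37° C with compounds, then stimulated 30 min at 37° C in PBS with forskolin and genistein. Endpoint fluorescence after iodide injection was normalized to initial reading; EC50 from 4-parameter fit with bottom constrained to DMSO control.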
row,Structure (SMILES),EC50 [µM]
1,CCn1cc(-c2ccc(Cl)cc2)c2c(NC(=O)C3CCCC3)ncnc21 [compound 350],< 2
2,CC(C)(C1CC1)n1cc(-c2ccc(Cl)cc2)c2c(N)ncnc21 [compound 351],2 to 5
3,CC(C)C(=O)Nc1ncnc2c1c(-c1ccc(Cl)cc1)cn2C(C)C [compound 352],< 2
4,CCn1nc([S+]([O-])c2ccccn2)c2c(N)ncnc21 (stereo not shown) [compound 353],> 15
5,Nc1ncnc2c1c(-c1ccc(Cl)cc1)nn2C1CNC1 [compound 411],> 15
6,Nc1ncnc2c1c(-c1ccc(Cl)cc1)nn2C1CCNCC1 [compound 412],> 15
7,Nc1ncnc2c1c(Cc1cccc3ccccc13)nn2C1CNC1 [compound 413],> 15
